Measured values: the supplement of paper PMC10307832

Tests used:
Experiment in all cases: relative viability (nuclei count vs DMSO), 5 days (fraction); higher = more cells survive
AZ628 + Bortezomib = compound: CC1=C(C=C(C=C1)NC(=O)C2=CC(=CC=C2)C(C)(C)C#N)NC3=CC4=C(C=C3)N=CN(C4=O)C [AZ628] + CC(C)C[C@H](NC(=O)[C@H](Cc1ccccc1)NC(=O)c1cnccn1)B(O)O [Bortezomib] (partner 0.002 µM)
Summary of the method: (§1)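 The day after seeding in 1536-well plates, lung cancer cell lines were treated by pin tool with a single drug, or with a fixed anchor-drug dose together with five library-drug doses (not always all listed) in √10 steps. After 5 days, a combined fix-and-stain solution (final 0.05% Triton X-100, 1% formaldehyde, 1 ug/ml Hoechst) was added. Nuclei counted on 4× images gave relative viability as treated counts over vehicle counts, reported as the median of duplicate plates.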

AZ628 + Foretinib = compound: CC1=C(C=C(C=C1)NC(=O)C2=CC(=CC=C2)C(C)(C)C#N)NC3=CC4=C(C=C3)N=CN(C4=O)C [AZ628] + COc1cc2c(Oc3ccc(NC(=O)C4(C(=O)Nc5ccc(F)cc5)CC4)cc3F)ccnc2cc1OCCCN1CCOCC1 [Foretinib] (partner 0.25 µM)
Summary of the method: as §1

QS11 + Decitabine = compound: C1CC2=C(C1)C=C(C=C2)OC3=NC(=C4C(=N3)N(C=N4)CC5=CC=C(C=C5)C6=CC=CC=C6)N[C@@H](CC7=CC=CC=C7)CO [QS11] + Nc1ncn([C@H]2C[C@H](O)[C@@H](CO)O2)c(=O)n1 [Decitabine] (partner 2 µM)
Summary of the method: as §1

| Cell Line | relative viability (AZ628 + Bortezomib; first compound 0.08 µM) | relative viability (AZ628 + Bortezomib; first compound 0.253 µM) | relative viability (AZ628 + Bortezomib; first compound 0.8 µM) | relative viability (AZ628 + Bortezomib; first compound 2.53 µM) | relative viability (AZ628 + Bortezomib; first compound 8 µM) | relative viability (AZ628 + Foretinib; first compound 0.08 µM) | relative viability (AZ628 + Foretinib; first compound 0.253 µM) | relative viability (AZ628 + Foretinib; first compound 0.8 µM) | relative viability (AZ628 + Foretinib; first compound 2.53 µM) | relative viability (AZ628 + Foretinib; first compound 8 µM) | relative viability (QS11 + Decitabine; first compound 0.08 µM) | relative viability (QS11 + Decitabine; first compound 0.253 µM) | relative viability (QS11 + Decitabine; first compound 0.8 µM) | relative viability (QS11 + Decitabine; first compound 2.53 µM) | relative viability (QS11 + Decitabine; first compound 8 µM) |
| --- | --- | --- | --- | --- | --- | --- | --- | --- | --- | --- | --- | --- | --- | --- | --- |
| 201T | 1.15 | 1.13 | 1.13 | 1.16 | 1.21 | 1.29 | 1.01 | 1.18 | 1.16 | 1.31 | 0.8 | 0.907 | 0.74 | 0.901 | 0.694 |
| A549 | – | – | – | – | – | 0.931 | 0.824 | 0.816 | 0.956 | 0.34 | 0.224 | 0.215 | 0.271 | 0.214 | 0.212 |
| A-427 | 0.884 | 0.993 | 1.1 | 0.94 | 0.452 | 0.996 | 0.872 | 0.542 | 0.643 | 0.34 | 0.523 | 0.561 | – | 0.613 | 0.674 |
| ABC-1 | 0.307 | 0.314 | 0.364 | 0.344 | 0.315 | 0.96 | 1.17 | 1.19 | 0.944 | 0.943 | 0.946 | 1.04 | 0.907 | 1.12 | 0.949 |
| BEN | 0.882 | 0.653 | 0.666 | 0.813 | 0.616 | 0.694 | 0.511 | 0.544 | 0.561 | 0.571 | 0.717 | 0.775 | 0.74 | 0.713 | 0.695 |
| CAL-12T | 0.948 | – | 0.747 | 0.835 | 0.779 | 1.16 | 1.05 | 1.13 | 0.994 | 0.559 | – | – | – | – | – |
| COR-L23 | 1.04 | 1.04 | 0.97 | 1.14 | 0.645 | 1.02 | 1 | 0.949 | 1.08 | 0.625 | 0.44 | 0.433 | 0.443 | 0.357 | 0.302 |
| COR-L 105 | 1.01 | 0.978 | 0.885 | 0.867 | 0.544 | 1.47 | 0.95 | 1.19 | 1.11 | 0.669 | 0.747 | 0.633 | 0.731 | 0.639 | 0.599 |
| Calu-6 | 1.03 | 0.943 | 0.61 | 0.792 | 0.244 | 0.867 | 0.726 | 0.636 | 0.816 | 0.142 | – | – | – | – | – |
| ChaGo-K-1 | 0.987 | – | 0.85 | 1.11 | 1.15 | 0.962 | 0.837 | 0.924 | 0.916 | 0.751 | – | 0.515 | 0.5 | 0.56 | 0.443 |
| EBC-1 | 0.636 | 0.605 | 0.642 | 0.685 | 0.472 | 0.117 | 0.11 | 0.111 | 0.0929 | 0.0846 | – | – | – | – | – |
| EKVX | 1.17 | 1.11 | 1.21 | 1.09 | 0.603 | 0.724 | 0.609 | 0.721 | 0.847 | 0.564 | 0.321 | 0.44 | 0.327 | 0.392 | 0.341 |
| EMC-BAC-2 | 1.11 | 0.963 | 1 | 0.991 | 1.08 | 0.91 | 0.87 | 0.871 | 0.901 | 0.877 | 0.939 | 1.07 | 0.842 | 0.913 | 0.854 |
| EPLC-272H | 0.87 | 0.803 | 0.797 | 0.525 | 0.877 | 0.671 | 0.625 | 0.654 | 0.581 | 0.309 | – | 0.382 | 0.388 | 0.385 | 0.341 |
| H3255 | 0.837 | 0.621 | 0.811 | 0.81 | 0.66 | 0.958 | 0.899 | 0.78 | 0.96 | 0.661 | 0.578 | 0.64 | – | 0.556 | 0.674 |
| HARA | 1.1 | 1.08 | 1.08 | 1.03 | 0.568 | 0.713 | 0.898 | 0.792 | 0.795 | 0.392 | 0.508 | – | 0.36 | 0.605 | 0.389 |
| HCC-15 | 1.06 | 0.951 | 0.873 | 0.866 | 0.661 | 1.08 | 0.984 | 0.871 | 0.868 | 0.467 | 0.697 | 0.737 | 0.573 | 0.586 | 0.525 |
| HCC-44 | 0.904 | 0.915 | 1.09 | 1.01 | 0.758 | – | – | – | – | – | 1.08 | 0.936 | 0.572 | 0.922 | 0.916 |
| HCC-78 | 0.675 | 0.457 | 0.586 | 0.487 | 0.623 | 0.732 | 0.748 | 0.715 | 0.621 | 0.67 | 0.687 | 0.772 | 0.662 | 0.797 | 0.719 |
| HCC-366 | 1.04 | 0.894 | 0.957 | 0.999 | 0.681 | 0.885 | 0.884 | 0.781 | 0.892 | 0.372 | 0.346 | 0.329 | – | 0.369 | 0.192 |
| HCC-827 | 1.04 | 1.03 | 1.03 | 1.01 | 1.07 | 0.982 | 0.933 | 0.967 | 1.02 | 0.715 | 0.343 | 0.33 | 0.308 | 0.336 | 0.337 |
| HOP-62 | 0.814 | 0.832 | 1.12 | 0.975 | 0.805 | 1.05 | 1.07 | 1.02 | 0.999 | 0.629 | 0.244 | 0.241 | 0.189 | 0.208 | 0.233 |
| IA-LM | 0.931 | 0.689 | 0.54 | 0.551 | 0.165 | 1.28 | 1.04 | 0.821 | 0.861 | 0.2 | – | – | – | – | – |
| LC-2-ad | 1.06 | 0.926 | 0.972 | 0.972 | 0.751 | 1.02 | 1.06 | 0.947 | 0.978 | 0.863 | 0.776 | 0.775 | 0.691 | 0.722 | 0.712 |
